Reference: patent US20250332265A1, “PSMA TARGETED CONJUGATE COMPOUNDS AND USES THEREOF” (priority 2021, published 2025)
“And” between values parts separate entries of the source, which are not always exact repeats. Equal entries are not always repeated. Numbered stars: 1 amine (or outer) side, 2 acyl side, 3 side chain; on linkers, the order of the positions; unused ones are H or OH. Bridge positions count the residues as written; N and C are the ends. Square brackets hold non-standard residues; d marks the D form. Peptide text beside a SMILES is read from it. I, II: the chains in the order shown. * marks the point of attachment. ξ: configuration not given here. X4 = CN1/C(=C/C=C/C=C/C2=[N+](CCCCCC(=O)*)c3ccc4ccccc4c3C2(C)C)C(C)(C)c2c1ccc1ccccc21; Hexanoyl(6-succinimido-3yl) = O=C1CC([*:1])C(=O)N1CCCCCC(=O)[*:2]; X5 = CC[C@H](C)[C@@H]([C@H](CC(=O)[*:2])OC)N(C)[*:1]; Dolaproine = CO[C@@H]([C@@H]1CCCN1)[C@@H](C)C(=O)O; Dil = CC[C@H](C)[C@H](NC)[C@@H](CC(=O)O)OC; X2 = O=C1CC([*:2])C(=O)N1CCCCCC(=O)[*:1]; γGlu = O=C(O)[C@H](CCC(=O)[*:2])N[*:1]; PABC = O=C(OCc1ccc(N[*:1])cc1)[*:2]; ξγGlu = O=C(O)C(CCC(=O)[*:2])N[*:1]; X1 = C[C@@H](N*)[C@@H](O)c1ccccc1; Trx = NC[C@H]1CC[C@H](C(=O)O)CC1; X3 = O=C(C1CCC(CN[*:1])CC1)[*:2]; Cit = NC(=O)NCCC[C@H](N)C(=O)O; NMeV = CN[C@H](C(=O)O)C(C)C; ξE = NC(CCC(=O)O)C(=O)O; CO = O=C([*:1])[*:2]; ξK = NCCCCC(N)C(=O)O; Ahx = NCCCCCC(=O)O; ξC = NC(CS)C(=O)O

Tests used:
[1] = test system: metastatic PC3pip model (GFP labeled PC3pip cells); experiment: Metastatic survival study; type: in vivo, mice
Description: Male athymic nude mice were injected into the left ventricle of the heart with 1×10^5 GFP labeled PC3pip cells to generate bone metastasis. One week later mice received 160 nmol/kg PSMA-1-VcMMAE-Cy5.5 or PBS every 4 days with a total of 5 doses and the progression of disease was monitored by GFP imaging. Five mice were used in each group.

[2] = Maximum tolerated dose (MTD); type: in vivo, mice
Text: Mice were monitored daily for 14 days.

[3] = In vitro cytotoxicity assay (CCK-8), PC3pip; type: cell-based, human; settings: 72 hours incubation
Description: (§1) Cells (1,000/well) were seeded in 96-well culture plates the day before treatment. Cells were incubated with various concentrations of drugs for 72 hours and cell viability evaluated by CCK-8 (Dojindo). The concentration required to reach 50% of cell proliferation was determined (IC50) by GraphPad Prism 3.0.

[4] = test system: PSMA-positive PC3pip cells; experiment: In vitro cytotoxicity assay (CCK-8), PC3pip; type: cell-based, human; settings: for effect of protease inhibitor E64 on cell killing: co-incubation with 50 μM E64
Description: as §1

[5] = test system: heterotopic PC3pip tumors; experiment: Heterotopic survival study; type: in vivo, mice; settings: for tumor growth when given every 7 days: dosing every 7 days
Text: Male athymic nude mice were implanted subcutaneously with 1×10^6 of PC3pip cells under the right dorsum of the mice. When tumor size reached approximately 100 mm^3 (tumor volume=Length×width^2/2), mice received drugs through tail vein injection. […] Animals were weighed and tumor size measured every other day for 90 days. Cures were defined as no tumor present at end of the 90-day study. When tumors became too large or animals were moribund they were euthanized. Five mice were used in each group.

[6] = In vitro cytotoxicity assay (CCK-8), PC3flu; type: cell-based, human; settings: 72 hours incubation, CCK-8; read-out: IC50 cytotoxicity, PC3flu cells
Description: as §1

[7] = test system: PSMA-negative PC3flu cells; experiment: In vitro cytotoxicity assay (CCK-8), PC3flu; type: cell-based, human
Description: as §1

orthotopic PC3pip tumors = experiment: Orthotopic survival study; type: in vivo, mice
Description: Surgical orthotopic tumor implantation was performed as previously reported. Tumor growth/size was monitored using Siemens Acuson S2000 ultrasound scanner. When the tumors were at the appropriate size (5 mm as measured by ultrasound, approximately 2 weeks) animals were given PSMA-1-VcMMAE, PSMA-1-VcMMAE-Cy5.5, or PBS every four days with a total of 5 doses. Tumors were monitored every other day by ultrasound. Each group had five mice.

[8] = test system: PSMA receptor expressed on the PC3pip cells; experiment: In vitro cellular uptake studies, Example 1; type: cell-based, human; settings: 50 nM, 4 hours
Description: PC3pip and PC3flu cells were seeded in p-Slide 8-Well Chamber Slide (ibidi GmbH) at 2,000 cells/well. When cells grew to 70% confluency, PSMA-1-VcMMAE-Cy5.5 or PSMA-1-McMMAE-Cy5.5 conjugations were added at 50 nM and incubated at 37° C. for 4 hours. Cells were washed with PBS and stained with DAPI and LysoOrange (Abcam) for 30 minutes at 37° and 5% CO2, after which they were washed again with PBS and filled with fresh medium. Selectivity was determined by including 20-fold excess of the PSMA-1 ligand. The uptake and localization of the drug conjugates were visualized under a Leica HyVolution SP8 confocal microscope at 40×.

heterotopic C4-2 tumors = experiment: Antitumor activity in heterotopic C4-2 tumors; type: in vivo, mice
Text: To show versatility of the antitumor activity of PSMA-1-VcMMAE-Cy5.5, we tested it in mice bearing heterotopic C4-2 tumors, which are androgen-independent prostate cancer cells endogenously expressing PSMA.

[9] = Stability of conjugates incubated with PBS, Example 1; type: physicochemical; settings: without enzyme
Description: To investigate if PSMA-targeted drug conjugates were cleavable by cathepsin B, the two conjugates were incubated with or without the enzyme and chromatographed by HPLC. When the conjugates were incubated with PBS, both PSMA-1-VcMMAE-Cy5.5 and PSMA-1-McMMAE-Cy5.5 were stable (FIG. 1D).

PC3pip and PC3flu tumors = experiment: In vivo NIR imaging studies, Example 1; design: species or system mice; settings: 40 nmol/kg i.v., fluorescence imaging
Description: Under guidelines of the animal care and use committee at Case Western Reserve University (IACUC #150033) 6 to 8-week old male Balb/cathymic nude mice were implanted subcutaneously with 1×10^6 of PC3flu and PC3pip on the left and right dorsum respectively. Mice received 40 nmol/kg of PSMA-1-VcMMAE-Cy5.5 or PSMA-1-McMMAE-Cy5.5 in PBS via tail vein injection when tumors reached 10 mm in diameter. Fluorescence imaging was performed using the Maestro In Vivo Imaging system (Perkin-Elmer). Multispectral images were unmixed into their component spectra (PSMA probes, autofluorescence, and background) to quantitate the average fluorescence intensity associated with the tumors using regions of interest (ROIs) around the tumors.

[10] = test system: α-tubulin in PC3pip and PC3flu cells; experiment: Immunofluorescence analysis of alpha-tubulin; type: cell-based, human; settings: 5 nM, 24 hours
Description: Cells on coverslips at about 70% confluency were incubated with 5 nM of MMAE, PSMA-1-VcMMAE-Cy5.5 or PSMA-1-McMMAE-Cy5.5 for 24 hours. Cells were washed and fixed with 4% paraformaldehyde for 10 minutes, permeabilized with 0.1% Triton™ X-100 for 10 minutes, and blocked with 1% BSA for 1 hour at room temperature. Alpha-tubulin (B5-1-2) Alexa Fluor 488 Mouse Monoclonal Antibody (Invitrogen) was then added at 2 μg/mL in 0.1% BSA and incubated for 3 hours at room temperature. Cells were counterstained with DAPI, mounted with Fluor-Mount aqueous mounting solution, and observed under Leica DM4000B fluorescence microscopy at 40×.

human liver cathepsin B = target: T1, human liver cathepsin B (Homo sapiens, UniProt P07858); experiment: Enzymatic cleavage by cathepsin B, Example 1; type: in vitro ADME; settings: 2 μM conjugate, 37° C., HPLC
T1 construct: purchased Anthens Research and Technology; host or cells: human liver (tissue-derived enzyme)
Description: PSMA-1-VcMMAE-Cy5.5 or PSMA-1-McMMAE-Cy5.5 was added to 500 μL of activated human liver cathepsin B (Anthens Research and Technology) solution to a final concentration of 2 μM and incubated at 37° C. At different time intervals, 40 µL of the solution was taken out into tubes loaded with 1 μL of 1 mM E64 protease inhibitor. The mixture was vortexed and then stored at −80° C. for future HPLC analysis to assess degradation of PSMA-1-VcMMAE-Cy5.5 or PSMA-1-McMMAE-Cy5.5. Studies were performed in triplicate.

## CC[C@H](C)[C@@H]([C@@H](CC(=O)N1CCC[C@H]1[C@H](OC)[C@@H](C)C(=O)N[C@H](C)[C@@H](O)c1ccccc1)OC)N(C)C(=O)[C@@H](NC(=O)[C@H](C(C)C)N(C)C(=O)OCc1ccc(NC(=O)[C@H](CCCNC(N)=O)NC(=O)[C@@H](NC(=O)CCCCCN2C(=O)CC(SC[C@H](NC(=O)[C@H](CCC(=O)O)NC(=O)[C@H](CCC(=O)O)NC(=O)[C@H](CCC(=O)O)NC(=O)CCCCCNC(=O)[C@H]3CC[C@H](CNC(=O)CC[C@H](NC(=O)N[C@@H](CCC(=O)O)C(=O)O)C(=O)O)CC3)C(=O)NCCCCCC(=O)N[C@@H](CCCCN)C(N)=O)C2=O)C(C)C)cc1)C(C)C (stereo partly drawn) [PSMA-1-VcMMAE] (I: V[Cit][PABC][NMeV]V[Dil][Dolaproine]-X1 / II: {Glu-CO-γGlu-Trx-Ahx}-EEEC[Ahx]K-NH2; linker I:N-II:4 via X2)
[1]
  effect on survival and body weight, words: prolong animal survival time with no body weight loss
[2]; MTD / lowest effective dose
  therapeutic index (TI): 40
[2]; mouse, in vivo, iv, single dose i.v., tumor-free athymic nude mice
  MTD: 7.64 µmol/kg
[2]; single dose i.v.
  MTD relative to MMAE: more than 10 fold
[3]; CCK-8, read-out: IC50 cytotoxicity, PC3pip cells
  IC50: 4.64 nM
[3]; read-out: selectivity, differential cytotoxicity between PC3pip and PC3flu cells
  selectivity ratio: 48
[4]; 72 hours incubation
  ratio of IC50's between PC3pip and PC3flu cells: 48.2
[4]
  effect of protease inhibitor E64 on cell killing: susceptible to E64 protease inhibition
[4]; versus PSMA-1-VcMMAE-Cy5.5
  increase of IC50 on removal of the Cy5.5 moiety, PC3pip cells: 6.2 fold
[5]; 955 nmol/kg
  inhibition of PC3pip versus PC3flu tumor growth: significantly more effective at inhibiting PSMA-positive PC3pip tumor growth than PSMA-negative PC3flu tumor growth
[5]; 3820 nmol/kg i.v. every 4 days, 5 doses
  cure (tumor free at 90 days): 60%
[5]
  tumor growth when given every 7 days: greatly inhibited tumor growth
[5]; even at the highest dose tested (3820 nmol/kg)
  body weight loss: No body weight loss
[5]; mouse, in vivo
  dose at which tumor growth inhibition starts: 191 nmol/kg
[6]
  IC50: 222 nM
[7]; versus PSMA-1-VcMMAE-Cy5.5
  increase of IC50 on removal of the Cy5.5 moiety, PC3flu cells: 11.1 fold
Orthotopic PC3pip tumors; 3860 nmol/kg, five mice per group
  tumor free mice: 1

## CC[C@H](C)[C@@H]([C@H](CC(=O)N1CCC[C@H]1[C@H](OC)[C@@H](C)C(=O)N[C@H](C)[C@@H](O)c1ccccc1)OC)N(C)C(=O)[C@@H](NC(=O)[C@H](C(C)C)N(C)C(=O)OCc1ccc(NC(=O)[C@H](CCCNC(N)=O)NC(=O)[C@@H](NC(=O)CCCCCN2C(=O)CC(SCC(NC(=O)C(CCC(=O)O)NC(=O)C(CCC(=O)O)NC(=O)C(CCC(=O)O)NC(=O)CCCCCNC(=O)C3CCC(CNC(=O)CCC(NC(=O)NC(CCC(=O)O)C(=O)O)C(=O)O)CC3)C(=O)NCCCCCC(=O)NC(CCCCNC(=O)CCCCC[N+]3=C(/C=C/C=C/C=C4/N(C)c5ccc6ccccc6c5C4(C)C)C(C)(C)c4c3ccc3ccccc43)C(N)=O)C2=O)C(C)C)cc1)C(C)C (some centres unmarked) [PSMA-1-VcMMAE-Cy5.5] (I: {ξE-CO-ξγGlu}-[X3][Ahx][ξE][ξE][ξE][ξC][Ahx][ξK](X4)-NH2 / II: V[Cit][PABC][NMeV]V[X5][Dolaproine]-X1; linker I:6-II:N via Hexanoyl(6-succinimido-3yl))
[8]
  cellular binding and uptake, competition with PSMA-1 ligand: selective and specific for the PSMA receptor
[4]; 72 hours incubation, CCK-8
  IC50: 0.84 nM and 0.75 nM
[4]
  effect of protease inhibitor E64 on cell killing: reduced the potency
[5]; 160 nmol/kg i.v. every 4 days, 5 doses
  cure rate (no tumors at end of 90-day study): 60%
[5]; 160 nmol/kg i.v. every four days, 5 doses
  antitumor activity (tumor growth), words: effectively inhibited tumor growth
[5]
  tumor growth when given every 7 days: greatly inhibited tumor growth
Heterotopic C4-2 tumors
  cure rate: 40%
[9]
  stability when incubated with PBS: stable
PC3pip and PC3flu tumors
  time of peak uptake in PC3pip tumors: 24 h
[10]
  disruption of α-tubulin network: selective disruption of tubulin in PC3pip cells
Orthotopic PC3pip tumors; every four days, 5 doses
  cure at day 90: 40%

## CC[C@H](C)[C@@H]([C@@H](CC(=O)N1CCC[C@H]1[C@H](OC)[C@@H](C)C(=O)N[C@H](C)[C@@H](O)c1ccccc1)OC)N(C)C(=O)[C@@H](NC(=O)[C@H](C(C)C)N(C)C(=O)CCCCCN1C(=O)CC(SC[C@H](NC(=O)[C@H](CCC(=O)O)NC(=O)[C@H](CCC(=O)O)NC(=O)[C@H](CCC(=O)O)NC(=O)CCCCCNC(=O)[C@H]2CC[C@H](CNC(=O)CC[C@H](NC(=O)N[C@@H](CCC(=O)O)C(=O)O)C(=O)O)CC2)C(=O)NCCCCCC(=O)N[C@@H](CCCCNC(=O)CCCCC[N+]2=C(/C=C/C=C/C=C3/N(C)c4ccc5ccccc5c4C3(C)C)C(C)(C)c3c2ccc2ccccc32)C(N)=O)C1=O)C(C)C (some centres unmarked) [PSMA-1-McMMAE-Cy5.5]
Human liver cathepsin B
  cleavage by cathepsin B: remained intact
[8]
  cellular binding and uptake, competition with PSMA-1 ligand: selective and specific for the PSMA receptor
[4]; 72 hours incubation, CCK-8
  IC50 cytotoxicity, PC3pip cells: no IC50 values could be obtained
[7]; 72 hours incubation, CCK-8
  IC50 cytotoxicity, PC3flu cells: no IC50 values could be obtained
[9]
  stability when incubated with PBS: stable
PC3pip and PC3flu tumors
  time of peak uptake in PC3pip tumors: 24 h
[10]
  disruption of α-tubulin network: no obvious disruption of tubulin
